How the values were obtained:
[1] = system: Mushroom-derived tyrosinase; test: Tyrosinase inhibitory effect; type: biochemical; settings: 1 mM L-tyrosin, pH 6.5, 25° C., 30 minutes, OD492; compared with kojic acid (positive control); FIGS. 4 to 6
Procedure: Mushroom-derived tyrosinase was sued as an enzyme source in the present experiment. Tyrosinase activities were assayed according to a slightly-modified conventionally known method (Life Sci., 1999, 65, 241-246). In detail, 20 μl of a mushroom-derived tyrosinase (1000 units) aqueous solution was added to 96-well microplate (Nunc, Denmark) to prepare 200 μl of the total volume of assay mixture containing 1 mM L-tyrosin solution and 50 mM phosphate buffer solution (pH 6.5). The assay mixture was cultured at a temperature of 25° C. for 30 minutes. After the culturing, an amount of the produced DOPA chrome in the reaction mixture was measured by using a microplate reader (Hewlett Packard) at 492 nm (OD492).

For COc1ccc(C=C2C(=O)NC(=O)NC2=O)cc1O, which melting point is on record?
Its melting point is 279.3 to 281.4 °C.

Which melting point does the source give for O=C1NC(=S)NC(=O)C1=Cc1ccccc1O here?
Its melting point is 250.6 to 251.4 °C.

For COc1ccc(/C=C2\NC(=S)NC2=O)cc1OC [Compound 105, (Z)-5-(3,4-dimethoxybenzylidene)-2-thioxoimidazolidin-4-one], which melting point is on record?
The melting point was 236.2 to 238 °C.

Which melting point does the source give for COc1cc(C=C2C(=O)NC(=O)NC2=O)cc(OC)c1OC here?
Its melting point is 274.8 to 275.4 °C.

With COc1ccc(/C=C2\CC(=O)NC2=O)c(OC)c1 [Compound 45, (E)-3-(2,4-dimethoxybenzylidene)pyrrolidine-2,5-dione] as the compound, how does the melting point read?
Its melting point is 245.7 to 246.6 °C.

With COc1ccc(C=C2C(=O)NC(=S)NC2=O)c(OC)c1 as the compound, how does the melting point read?
Its melting point is 294.1 to 295.4 °C.

Which melting point does the source give for COc1cc(/C=C2\CC(=O)NC2=O)cc(OC)c1OC [Compound 47, (E)-3-(3,4,5-trimethoxybenzylidene)pyrrolidine-2,5-dione] here?
Its melting point is 191.2 to 193.6 °C.

Which melting point does the source give for COc1ccc(/C=C2\NC(=O)NC2=O)c(OC)c1 [Compound 32, (Z)-5-(2,4-dimethoxybenzylidene)imidazolidine-2,4-dione] here?
Its melting point is 234.1 to 237.2 °C.

Which melting point does the source give for COc1cc(C=C2C(=O)NC(=S)NC2=O)cc(OC)c1OC here?
The melting point was 258.9 to 260.7 °C.

With COc1ccc(/C=C2\CC(=O)NC2=O)cc1OC [Compound 43, (E)-3-(3,4-dimethoxybenzylidene)pyrrolidine-2,5-dione] as the compound, how does the melting point read?
The melting point was 237.1 to 238.4 °C.

For O=C1NC(=O)/C(=C/c2ccc(O)cc2)S1 [Compound 1, (Z)-5-(4-hydroxybenzylidene)thiazolidine-2,4-dione], which tyrosinase inhibitory activities [1] is on record?
Its tyrosinase inhibitory activities is “better tyrosinase inhibitory activities than a kojic acid”.

Which melting point does the source give for COc1ccc(/C=C2\SC(=S)NC2=O)c(OC)c1 [Compound 70, (Z)-5-(2,4-dimethoxybenzylidene)-2-thioxothiazolidin-4-one] here?
Its melting point is 272.7 to 275.2 °C.

For [H]/N=C1/NC(=O)C(=Cc2ccc(OC)cc2OC)S1 [Compound 119, (Z)-5-(2,4-dimethoxybenzylidene)-2-iminothiazolidin-4-one], which melting point is on record?
The melting point was 249.1 to 250.7 °C.

For O=C1NC(=O)/C(=C/c2ccc(O)cc2)N1 [Compound 25, (Z)-5-(4-hydroxybenzylidene)imidazolidine-2,4-dione], which melting point is on record?
The melting point was greater than 300 °C.

Which melting point does the source give for CCOc1cc(C=C2C(=O)NC(=S)NC2=O)ccc1O here?
The melting point was 285 to 287.3 °C.

For COc1cc(/C=C2\NC(=O)NC2=O)cc(OC)c1OC [Compound 34, (Z)-5-(3,4,5-trimethoxybenzylidene)imidazolidine-2,4-dione], which melting point is on record?
The melting point was 266.3 to 267.2 °C.

For COc1cc(/C=C2\CC(=O)NC2=O)cc(OC)c1O [Compound 48, (E)-3-(4-hydroxy-3,5-dimethoxybenzylidene)pyrrolidine-2,5-dione], which melting point is on record?
The melting point was 236.7 to 237.7 °C.

For COc1cc(/C=C2\CC(=O)NC2=O)ccc1O [Compound 39, (E)-3-(4-hydroxy-3-methoxybenzylidene)pyrrolidine-2,5-dione], which melting point is on record?
Its melting point is 243.5 to 245.7 °C.

For [H]/N=C1/NC(=O)C(=Cc2ccc(O)cc2)N1C [Compound 74, (Z)-5-(4-hydroxybenzylidene)-2-imino-1-methylimidazolidin-4-one], which melting point is on record?
The melting point was 285.9 to 288 °C.

With [H]/N=C1/NC(=O)C(=Cc2cc(O)cc(O)c2)S1 [Compound 118, (Z)-5-(3,5-dihydroxybenzylidene)-2-iminothiazolidin-4-one] as the compound, how does the melting point read?
The melting point was greater than 300 °C.

Which melting point does the source give for [H]/N=C1/NC(=O)C(=Cc2ccc(OC)c(OC)c2)N1C [Compound 80, (Z)-5-(3,4-dimethoxybenzylidene)-2-imino-1-methylimidazolidin-4-one] here?
The melting point was 257.1 to 259 °C.

With [H]/N=C1/NC(=O)C(=Cc2cc(OC)c(O)c(OC)c2)S1 [Compound 122, (Z)-5-(4-hydroxy-3,5-dimethoxybenzylidene)-2-iminothiazolidin-4-one] as the compound, how does the melting point read?
The melting point was 254.3 to 256.6 °C.

For CCOc1cc(/C=C2\CC(=O)NC2=O)ccc1O [Compound 40, (E)-3-(3-ethoxy-4-hydroxybenzylidene)pyrrolidine-2,5-dione], which melting point is on record?
Its melting point is 222.3 to 224.1 °C.

For O=C1NC(=O)C(=Cc2ccc(OCc3ccccc3)cc2)C(=O)N1 [Compound 123, 5-(4-(benzyloxy)benzylidene)pyrimidine-2,4,6(1H,3H,5H)-trione], which tyrosinase inhibitory activities [1] is on record?
Its tyrosinase inhibitory activities is “better tyrosinase inhibitory activities than a kojic acid”.

For O=C1C/C(=C\c2ccccc2O)C(=O)N1 [Compound 46, (E)-3-(2-hydroxybenzylidene)pyrrolidine-2,5-dione], which melting point is on record?
Its melting point is 271.3 to 272.1 °C.

With [H]/N=C1/NC(=O)C(=Cc2ccc(O)c(OC)c2)N1C [Compound 76, (Z)-5-(4-hydroxy-3-methoxybenzylidene)-2-imino-1-methylimidazolidin-4-one] as the compound, how does the melting point read?
Its melting point is 254.2 to 255.6 °C.

Which melting point does the source give for O=C1NC(=S)NC(=O)C1=Cc1ccc(O)cc1O here?
Its melting point is greater than 300 °C.

For COc1ccc(/C=C2\CC(=O)NC2=O)cc1 [Compound 42, (E)-3-(4-methoxybenzylidene)pyrrolidine-2,5-dione], which melting point is on record?
The melting point was 243.4 to 245.7 °C.

With [H]/N=C1/NC(=O)C(=Cc2ccc(OC)cc2OC)N1C [Compound 81, (Z)-5-(2,4-dimethoxybenzylidene)-2-imino-1-methylimidazolidin-4-one] as the compound, how does the melting point read?
Its melting point is 244.6 to 245.6 °C.

With COc1cc(/C=C2\SC(=N)NC2=O)cc(OC)c1OC [Compound 121, (Z)-2-Imino-5-(3,4,5-trimethoxybenzylidene)thiazolidin-4-one] as the compound, how does the melting point read?
Its melting point is 253.3 to 254.8 °C.

For COc1ccc(/C=C2\SC(=O)NC2=O)c(OC)c1 [Compound 10, (Z)-5-(2,4-dimethoxybenzylidene)thiazolidine-2,4-dione], which melting point is on record?
The melting point was 254.7 to 255.6 °C.

With COc1ccc(/C=C2\NC(=S)NC2=O)cc1 [Compound 104, (Z)-5-(4-methoxybenzylidene)-2-thioxoimidazolidin-4-one] as the compound, how does the melting point read?
The melting point was 266.9 to 267.5 °C.

Which melting point does the source give for COc1ccc(/C=C2/C(=O)NC(=N)N2C)cc1 [Compound 79, (Z)-2-Imino-5-(4-methoxybenzylidene)-1-methylimidazolidin-4-one] here?
Its melting point is 252.1 to 255 °C.

Which melting point does the source give for [H]/N=C1/NC(=O)C(=Cc2ccc(OC)c(O)c2)N1C [Compound 78, (Z)-5-(3-hydroxy-4-methoxybenzylidene)-2-imino-1-methylimidazolidin-4-one] here?
The melting point was 276.1 to 277.3 °C.

With CCOc1cc(C=C2C(=O)NC(=O)NC2=O)ccc1O as the compound, how does the melting point read?
Its melting point is 244.7 to 246.1 °C.

Which melting point does the source give for COc1ccc(C=C2C(=O)NC(=S)NC2=O)cc1O here?
The melting point was 278.9 to 280.5 °C.

For [H]/N=C1/NC(=O)C(=Cc2ccc(O)c(OCC)c2)N1C [Compound 77, (Z)-5-(3-ethoxy-4-hydroxybenzylidene)-2-imino-1-methylimidazolidin-4-one], which melting point is on record?
Its melting point is 254.2 to 255.6 °C.

For COc1cc(C=C2C(=O)NC(=S)NC2=O)ccc1O, which melting point is on record?
Its melting point is 260.9 to 263.6 °C.

Which melting point does the source give for O=C1NC(=O)/C(=C/c2cc(O)cc(O)c2)S1 [Compound 9, (Z)-5-(3,5-dihydroxybenzylidene)thiazolidine-2,4-dione] here?
The melting point was 288.4 to 290.2 °C.

Which melting point does the source give for [H]/N=C1/NC(=O)C(=Cc2ccc(OC)c(OC)c2)S1 [Compound 117, (Z)-5-(3,4-dimethoxybenzylidene)-2-iminothiazolidin-4-one] here?
The melting point was 274.2 to 276.3 °C.

With COc1cc(/C=C2\NC(=O)NC2=O)cc(OC)c1O [Compound 151, (Z)-5-(4-hydroxy-3,5-dimethoxybenzylidene)imidazolidine-2,4-dione] as the compound, how does the melting point read?
Its melting point is 266 to 268.5 °C.

Which melting point does the source give for COc1ccc(C=C2C(=O)NC(=S)NC2=O)cc1OC here?
The melting point was 269.9 to 271.7 °C.

With [H]/N=C1/NC(=O)C(=Cc2ccccc2O)S1 [Compound 120, (Z)-5-(2-hydroxybenzylidene)-2-iminothiazolidin-4-one] as the compound, how does the melting point read?
Its melting point is 210.1 to 211.5 °C.

For [H]/N=C1/NC(=O)C(=Cc2ccc(O)c(O)c2)S1 [Compound 112, (Z)-5-(3,4-dihydroxybenzylidene)-2-iminothiazolidin-4-one], which melting point is on record?
The melting point was greater than 300 °C.

Which melting point does the source give for COc1cc(/C=C2\SC(=O)NC2=O)cc(OC)c1OC [Compound 12, (Z)-5-(3,4,5-trimethoxybenzylidene)thiazolidine-2,4-dione] here?
Its melting point is 179.1 to 181 °C.

With [H]/N=C1/NC(=O)C(=Cc2ccc(OC)c(O)c2)S1 [Compound 115, (Z)-5-(3-hydroxy-4-methoxybenzylidene)-2-iminothiazolidin-4-one] as the compound, how does the tyrosinase inhibitory activities [1] read?
Its tyrosinase inhibitory activities is “better tyrosinase inhibitory activities than a kojic acid”.

With COc1ccc(C=C2C(=O)NC(=O)NC2=O)c(OC)c1 as the compound, how does the melting point read?
The melting point was 291.1 to 291.7 °C.

Which melting point does the source give for CCOc1cc(/C=C2\NC(=O)NC2=O)ccc1O [Compound 28, (Z)-5-(3-ethoxy-4-hydroxybenzylidene)imidazolidine-2,4-dione] here?
The melting point was 253 to 255.4 °C.

For COc1cc(C=C2C(=O)NC(=S)NC2=O)cc(OC)c1O, which melting point is on record?
Its melting point is greater than 300 °C.

With O=C1C/C(=C\c2cc(O)cc(O)c2)C(=O)N1 [Compound 44, (E)-3-(3,5-dihydroxybenzylidene)pyrrolidine-2,5-dione] as the compound, how does the melting point read?
Its melting point is 275.2 to 277.8 °C.

For O=C1NC(=O)/C(=C/c2ccccc2O)N1 [Compound 33, (Z)-5-(2-hydroxybenzylidene)imidazolidine-2,4-dione], which melting point is on record?
The melting point was 265.5 to 268.4 °C.

With COc1ccc(C=C2C(=O)NC(=O)NC2=O)cc1OC as the compound, how does the melting point read?
Its melting point is greater than 300 °C.

With COc1cc(/C=C2\NC(=S)NC2=O)cc(OC)c1OC [Compound 109, (Z)-2-thioxo-5-(3,4,5-trimethoxybenzylidene)imidazolidin-4-one] as the compound, how does the melting point read?
The melting point was 264 to 266.6 °C.

Which melting point does the source give for COc1ccc(/C=C2\NC(=S)NC2=O)c(OC)c1 [Compound 107, (Z)-5-(2,4-dimethoxybenzylidene)-2-thioxoimidazolidin-4-one] here?
Its melting point is 237.1 to 238.6 °C.

Reference: patent US9896421B2, “Compound having skin-whitening, anti-oxidizing and PPAR activities and medical use thereof” (Pusan National University Industry-University Cooperation …, priority 2011, dated 2018)
